Tests used:
[1] = tested on: import of hSIRT3 into isolated mammalian mitochondria; assay: Import of radiolabeled hSIRT3 into isolated mitochondria; details: antimycin 8 μM, oligomycin 20 μM and valinomycin 1 μM added together to dissipate the transmembrane potential
Experimental: Import into isolated mitochondria was carried out as previously reported (22). Proteins were synthesized in the presence of [^35S]-methionine by coupled transcription-translation in reticulocyte lysate (Promega, Madison, Wis.) (23). In vitro translation reactions were centrifuged at 108,000×g, 2° C. for 15 min and adjusted to 250 mM sucrose. Import reactions contained 5% (v/v) reticulocyte lysate in import buffer (3% (w/v) fatty-acid free bovine serum albumin (BSA), 250 mM sucrose, 80 mM KCl, 5 mM MgCl2, 2 mM KH2PO4, 5 mM L-methionine, 10 mM 3-[N-morpholino]propanesulfonic acid-KOH, pH 7.2). In each import reaction, 50 μg of freshly isolated mammalian mitochondria were mixed with radiolabeled proteins and incubated at 30° C. ATP (2 mM) and sodium succinate (10 mM) were added to maintain coupling of isolated mitochondria. Import was stopped by addition of valinomycin (1 μM) and transfer to 0°C.
Where indicated, samples were treated with proteinase K (50 μg/ml) for 10 min on ice. Protease treatment was stopped by addition of 2 mM phenylmethylsulfonyl fluoride (PMSF). Mitochondria were reisolated by centrifugation at 10,000×g for 5 min at 4° C., washed in SEM buffer and recentrifuged as above. Mitochondrial pellets were resuspended in SDS sample buffer containing dithiothreitol (DTT) and heated to 95° C. for 5 min. Samples were subjected to SDS-PAGE. Dried gels were exposed to Biomax MR film (Kodak, Rochester, N.Y.) at −70° C. and analyzed on a Fuji FUJIX BAS 1000 phosphorimager. […]
FIG. 4. […] After reisolation of mitochondria and SDS-PAGE, the amounts of imported proteins were quantified by phosphorimaging. FIG. 4B, Quantitation of imported protein by phosphorimaging. […] Reisolated and washed mitochondria were lysed in SDS sample buffer and analyzed by SDS-PAGE. […] FIG. 4E, Import efficiency of individual hSIRT3 mutants was quantitated in relation to their standards by phosphorimaging. […]

hSIRT3 = biological target: T1, hSIRT3 (Homo sapiens, UniProt Q9NTG7); assay: In vitro deacetylase assay on mitochondrial lysates of hSIRT3-transfected cells; format: biochemical; details: lysates of hSIRT3-transfected HEK293T cells, compared with untransfected lysates
T1 construct: proteolytically cleaved by mitochondrial matrix processing peptidase (MPP) between residues Ser101 and Ilel02; expressed in transfected cells; host or cells: HEK293T cells, mitochondrial lysate in TXIP-1 buffer
T1 sequence (Q9NTG7 102-399 limits assumed): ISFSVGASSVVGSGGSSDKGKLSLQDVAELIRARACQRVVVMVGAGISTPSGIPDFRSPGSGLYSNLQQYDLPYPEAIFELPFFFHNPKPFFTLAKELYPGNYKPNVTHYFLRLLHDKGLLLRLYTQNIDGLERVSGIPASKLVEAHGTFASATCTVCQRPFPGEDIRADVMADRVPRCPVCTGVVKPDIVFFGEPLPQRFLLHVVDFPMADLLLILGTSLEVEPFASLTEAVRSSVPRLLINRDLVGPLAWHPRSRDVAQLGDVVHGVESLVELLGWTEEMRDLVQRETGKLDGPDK
Experimental: (§1) Deacetylase assays were performed in a total volume of 100 μl SIRT deacetylase buffer (4 mM MgCl2, 0.2 mM dithiothreitol, 50 mM Tris-HCl, pH 9.0) containing immunoprecipitated proteins or mitochondrial lysates and a peptide corresponding to the first the first 22 amino acids of histone 4 chemically acetylated in vitro (27). Where indicated, 1 mM NAD, 5 mM nicotinamide (both from Sigma, St. Louis, Mo.) or 400 nM TSA (WAKO, Richmond, Va.) were added. Deacetylation reactions were stopped after 2 hours of incubation at room temperature by adding 25 μl stop solution (0.1 M HCl, 0.16 M acetic acid). Released acetate was extracted into 500 μl ethyl acetate and samples were vigorously shaken for 15 minutes. After centrifugation for 5 minutes, 400 μl of the ethyl acetate fraction was mixed with 5 ml scintillation fluid (Packard, Meriden, Conn.) and the released radioactivity was measured using a liquid scintillation counter.
In vitro deacetylase activities of equal amounts of mitochondrial lysate are shown.

[2] = tested on: NAD-dependent deacetylase activity in human mitochondrial fractions prepared from HEK293T cells; assay: In vitro deacetylase assay on mitochondrial lysates, acetylated histone H4 peptide; details: NAD 1 mM, 2 hrs
Experimental: as §1
Mitochondrial lysates were prepared from HEK293T cells and protein content was determined. […] Samples were incubated for 2 hrs at 25° C.

Compound | effect on import of hSIRT3 across the mitochondrial membrane [1] | other results
CC(C)[C@@H]1NC(=O)[C@H](C)OC(=O)[C@@H](C(C)C)NC(=O)[C@@H](C(C)C)OC(=O)[C@H](C(C)C)NC(=O)[C@H](C)OC(=O)[C@@H](C(C)C)NC(=O)[C@@H](C(C)C)OC(=O)[C@H](C(C)C)NC(=O)[C@H](C)OC(=O)[C@@H](C(C)C)NC(=O)[C@@H](C(C)C)OC1=O [valinomycin] | inhibited | 
antimycin | inhibited | 
CC(/C=C/C(=O)NO)=C\[C@@H](C)C(=O)c1ccc(N(C)C)cc1 [TSA, trichostatin A] |  | sensitivity of deacetylase activity of mitochondrial lysates overexpressing hSIRT3 (hSIRT3): same properties as untransfected mitochondrial lysates; effect on NAD-dependent deacetylase activity of mitochondrial lysate ([2]; TSA 400 nM): no effect
CC[C@H]1/C=C/C=C/C[C@@H](C)[C@H](O)[C@@](C)(O)C(=O)[C@@H](C)[C@H](O)[C@@H](C)C(=O)[C@@H](C)[C@H](O)[C@@H](C)/C=C/C(=O)O[C@@H]2[C@H](C)[C@H](CC1)O[C@]1(CC[C@H](C)[C@H](C[C@@H](C)O)O1)[C@H]2C [oligomycin] | inhibited | 
NC(=O)c1cccnc1 [nicotinamide] |  | effect on NAD-dependent deacetylase activity of mitochondrial lysate ([2]; nicotinamide 5 mM): suppressed
